Assay results published in PMC5659893 (2017).

Test: second and third wash supernates of 1×10^8 RBCs/mL
Conditions: human, 37°C, up to 24 hours

| not cleaved | Substance |
| --- | --- |
| more than 90% recovered after 24 hours | RRGWALRLVLAY-NH2 |
| more than 90% recovered after 24 hours | ILPWKWPWWPWRR-NH2 |
